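In this assay, cells in 96-well plates receive the compound at five concentrations for 48 hours. Endpoints are linearly interpolated between the surrounding concentrations. GI50 is the concentration that inhibits growth by half. At the TGI there is no net growth.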
Assays:
Assay in all cases: DTP human tumour cell line panel, 48 h
DU-145 prostate = tested on: DU-145 prostate
HCT-116 colon = tested on: HCT-116 colon
KM12 colon = tested on: KM12 colon
MALME-3M melanoma = tested on: MALME-3M melanoma
NCI-H460 lung = tested on: NCI-H460 lung
OVCAR-8 ovarian = tested on: OVCAR-8 ovarian
SF-295 CNS = tested on: SF-295 CNS
SK-OV-3 ovarian = tested on: SK-OV-3 ovarian
SNB-19 CNS = tested on: SNB-19 CNS
T-47D breast = tested on: T-47D breast

## CC(C)(C)[C@H]1CCC2(OCCO2)[C@](O)(CCCO)C1
DU-145 prostate
  TGI: > 100 µM
HCT-116 colon
  TGI: > 100 µM
KM12 colon
  TGI: > 100 µM
MALME-3M melanoma
  TGI: > 100 µM
NCI-H460 lung
  TGI: > 100 µM
OVCAR-8 ovarian
  TGI: > 100 µM
SF-295 CNS
  TGI: > 100 µM
SK-OV-3 ovarian
  TGI: > 100 µM
SNB-19 CNS
  TGI: > 100 µM
T-47D breast
  TGI: > 100 µM

## O=C(N/N=C\c1ccccc1)Nc1cccc2ccccc12
DU-145 prostate
  TGI: > 100 µM
HCT-116 colon
  TGI: > 100 µM
KM12 colon
  TGI: > 100 µM
MALME-3M melanoma
  TGI: > 100 µM
NCI-H460 lung
  TGI: > 100 µM
OVCAR-8 ovarian
  TGI: > 100 µM
SF-295 CNS
  TGI: 77.1 µM
SNB-19 CNS
  TGI: > 100 µM
T-47D breast
  TGI: 48.2 µM

## Cc1ccc(C(=O)Nc2ccc(S(=O)(=O)O)c3cc(S(=O)(=O)O)cc(S(=O)(=O)O)c23)cc1NC(=O)c1cccc(NC(=O)Nc2cccc(C(=O)Nc3cc(C(=O)Nc4ccc(S(=O)(=O)O)c5cc(S(=O)(=O)O)cc(S(=O)(=O)O)c45)ccc3C)c2)c1 (tested in a mixture with another compound)
DU-145 prostate
  TGI: > 50 µM
HCT-116 colon
  TGI: > 50 µM
KM12 colon
  TGI: > 50 µM
MALME-3M melanoma
  TGI: > 50 µM
NCI-H460 lung
  TGI: > 50 µM
OVCAR-8 ovarian
  TGI: > 50 µM
SF-295 CNS
  TGI: > 50 µM
SK-OV-3 ovarian
  TGI: > 50 µM
SNB-19 CNS
  TGI: > 50 µM
T-47D breast
  TGI: > 50 µM

## COC(=O)c1cc(C(=CCC[C@H]2CC[C@@]3(C)C(CCC4C3CC[C@@]3(C)C4CC[C@@H]3C(C)CCCC(C)C)C2)c2cc(Cl)c(OC(=O)c3ccccc3)c(C(=O)OC)c2)cc(Cl)c1OC(=O)c1ccccc1 (some centres not stated)
DU-145 prostate
  TGI: > 10 µM
HCT-116 colon
  TGI: > 10 µM
KM12 colon
  TGI: > 10 µM
MALME-3M melanoma
  TGI: > 10 µM
NCI-H460 lung
  TGI: > 10 µM
OVCAR-8 ovarian
  TGI: > 10 µM
SF-295 CNS
  TGI: > 10 µM
SK-OV-3 ovarian
  TGI: > 10 µM
SNB-19 CNS
  TGI: > 10 µM
T-47D breast
  TGI: > 10 µM

## COC(=O)c1ccccc1C1CN=NC12Cc1cccc(C)c1C2=O (configuration not stated)
DU-145 prostate
  TGI: > 100 µM
HCT-116 colon
  TGI: > 100 µM
KM12 colon
  TGI: > 100 µM
MALME-3M melanoma
  TGI: > 100 µM
NCI-H460 lung
  TGI: > 100 µM
OVCAR-8 ovarian
  TGI: > 100 µM
SF-295 CNS
  TGI: > 100 µM
SK-OV-3 ovarian
  TGI: > 100 µM
SNB-19 CNS
  TGI: > 100 µM
T-47D breast
  TGI: 56.4 µM

## c1ccc(N=C2SC3=NCCN3C2=Nc2ccccc2)cc1
DU-145 prostate
  TGI: 28.8 µM
HCT-116 colon
  TGI: 26.8 µM
KM12 colon
  TGI: 29.7 µM
NCI-H460 lung
  TGI: 50.6 µM
OVCAR-8 ovarian
  TGI: > 100 µM
SF-295 CNS
  TGI: 41.7 µM
SK-OV-3 ovarian
  TGI: > 100 µM
SNB-19 CNS
  TGI: 32.5 µM
T-47D breast
  TGI: 44.4 µM

## N=c1c2c(=S)n(-c3ccccc3)c(=S)n(-c3ccccc3)c2nc(SCCN2CCOCC2)n1-c1ccccc1
DU-145 prostate
  TGI: 3.22 µM
HCT-116 colon
  TGI: 3.45 µM
KM12 colon
  TGI: 6.09 µM
MALME-3M melanoma
  TGI: 3.49 µM
NCI-H460 lung
  TGI: 5.96 µM
OVCAR-8 ovarian
  TGI: 4.51 µM
SF-295 CNS
  TGI: 19.2 µM
SK-OV-3 ovarian
  TGI: 15 µM
SNB-19 CNS
  TGI: 24 µM
T-47D breast
  TGI: 8.03 µM

## CSc1nc2c(=O)n(-c3ccccc3)c(=S)n(-c3ccccc3)c2s1
DU-145 prostate
  TGI: > 100 µM
HCT-116 colon
  TGI: > 100 µM
KM12 colon
  TGI: > 100 µM
MALME-3M melanoma
  TGI: > 100 µM
NCI-H460 lung
  TGI: > 100 µM
OVCAR-8 ovarian
  TGI: > 100 µM
SF-295 CNS
  TGI: > 100 µM
SK-OV-3 ovarian
  TGI: > 100 µM
SNB-19 CNS
  TGI: 64.7 µM
T-47D breast
  TGI: > 100 µM

## C[C@]1(O)O[C@@H]2OCC[C@@H]2C2=C1C(=O)c1ccccc1C2=O
DU-145 prostate
  TGI: 30.4 µM
KM12 colon
  TGI: 29.8 µM
MALME-3M melanoma
  TGI: 29.5 µM
NCI-H460 lung
  TGI: 32.8 µM
OVCAR-8 ovarian
  TGI: 29.4 µM
SF-295 CNS
  TGI: 35.8 µM
SK-OV-3 ovarian
  TGI: 45.6 µM
SNB-19 CNS
  TGI: 35.2 µM
T-47D breast
  TGI: 59.1 µM

## COC(=O)[C@H](Cc1ccccc1)NP(=O)(O)OCC1C=CC(n2cc(C)c(=O)[nH]c2=O)O1 (some centres not stated)
DU-145 prostate
  TGI: > 100 µM
HCT-116 colon
  TGI: > 100 µM
KM12 colon
  TGI: > 100 µM
MALME-3M melanoma
  TGI: > 100 µM
NCI-H460 lung
  TGI: > 100 µM
OVCAR-8 ovarian
  TGI: > 100 µM
SF-295 CNS
  TGI: > 100 µM
SK-OV-3 ovarian
  TGI: > 100 µM
SNB-19 CNS
  TGI: > 100 µM
T-47D breast
  TGI: > 100 µM

## CC(=O)O[C@H]1C[C@H]2C(=S)Nc3ccccc3C(=S)N2C1
DU-145 prostate
  TGI: > 100 µM
HCT-116 colon
  TGI: > 100 µM
KM12 colon
  TGI: > 100 µM
MALME-3M melanoma
  TGI: > 100 µM
NCI-H460 lung
  TGI: > 100 µM
OVCAR-8 ovarian
  TGI: > 100 µM
SF-295 CNS
  TGI: > 100 µM
SK-OV-3 ovarian
  TGI: > 100 µM
SNB-19 CNS
  TGI: > 100 µM
T-47D breast
  TGI: > 100 µM

## NC(=O)CC(N=C1C(=O)OC(C(O)CO)C1=NC(CC(N)=O)C(=O)O)C(=O)O (configuration not stated)
DU-145 prostate
  TGI: > 100 µM
HCT-116 colon
  TGI: > 100 µM
KM12 colon
  TGI: > 100 µM
MALME-3M melanoma
  TGI: > 100 µM
NCI-H460 lung
  TGI: > 100 µM
OVCAR-8 ovarian
  TGI: > 100 µM
SF-295 CNS
  TGI: > 100 µM
SK-OV-3 ovarian
  TGI: > 100 µM
SNB-19 CNS
  TGI: > 100 µM
T-47D breast
  TGI: > 100 µM

## C#CC(O)/C=C/C(O)CCCC(O)CC#CC(O)C#CC(O)CCCC(O)/C=C/CCCC(=O)CCCCCCCCCCCCCCCC(O)C(O)C#CC(=O)O (configuration not stated)
DU-145 prostate
  TGI: > 50 µM
HCT-116 colon
  TGI: > 50 µM
KM12 colon
  TGI: > 50 µM
MALME-3M melanoma
  TGI: > 50 µM
NCI-H460 lung
  TGI: > 50 µM
OVCAR-8 ovarian
  TGI: > 50 µM
SF-295 CNS
  TGI: > 50 µM
SK-OV-3 ovarian
  TGI: > 50 µM
SNB-19 CNS
  TGI: > 50 µM
T-47D breast
  TGI: > 50 µM

## CC(NC(=O)C(N)CC(=O)O)NC(=O)N(C)C(C)(C)C (configuration not stated)
DU-145 prostate
  TGI: > 100 µM
HCT-116 colon
  TGI: > 100 µM
KM12 colon
  TGI: > 100 µM
MALME-3M melanoma
  TGI: > 100 µM
NCI-H460 lung
  TGI: > 100 µM
OVCAR-8 ovarian
  TGI: > 100 µM
SF-295 CNS
  TGI: > 100 µM
SK-OV-3 ovarian
  TGI: > 100 µM
SNB-19 CNS
  TGI: > 100 µM
T-47D breast
  TGI: > 100 µM

## Clc1ncc(Cl)c(Cl)n1
DU-145 prostate
  TGI: 24.1 µM
HCT-116 colon
  TGI: 8.01 µM
KM12 colon
  TGI: 22.9 µM
MALME-3M melanoma
  TGI: 3.75 µM
NCI-H460 lung
  TGI: > 100 µM
OVCAR-8 ovarian
  TGI: 19.3 µM
SF-295 CNS
  TGI: 26.6 µM
SK-OV-3 ovarian
  TGI: 14.3 µM
SNB-19 CNS
  TGI: 10.3 µM
T-47D breast
  TGI: 10 µM

## C=CCCCCCCCCCOC1C=CC(OC(C)=O)C(COC(C)=O)O1 (configuration not stated)
DU-145 prostate
  TGI: > 100 µM
HCT-116 colon
  TGI: > 100 µM
KM12 colon
  TGI: > 100 µM
MALME-3M melanoma
  TGI: > 100 µM
NCI-H460 lung
  TGI: > 100 µM
OVCAR-8 ovarian
  TGI: 43.4 µM
SF-295 CNS
  TGI: > 100 µM
SK-OV-3 ovarian
  TGI: > 100 µM
SNB-19 CNS
  TGI: > 100 µM
T-47D breast
  TGI: > 100 µM

## c1ccc(C(CCN2CC3CCC(CC3)C2)c2ccccc2)cc1
DU-145 prostate
  TGI: > 100 µM
HCT-116 colon
  TGI: 63.8 µM
KM12 colon
  TGI: 87.4 µM
MALME-3M melanoma
  TGI: 29.9 µM
NCI-H460 lung
  TGI: 28.9 µM
OVCAR-8 ovarian
  TGI: 98.3 µM
SF-295 CNS
  TGI: 55 µM
SNB-19 CNS
  TGI: > 100 µM
T-47D breast
  TGI: 49.1 µM

## Oc1ccc(C#CCOc2ccccc2)cc1CNCCN(Cc1ccccn1)Cc1ccccn1
DU-145 prostate
  GI50: 1.08 µM
  TGI: 2.95 µM
KM12 colon
  GI50: 1.28 µM
  TGI: 2.91 µM
MALME-3M melanoma
  GI50: 1.63 µM
  TGI: 3.31 µM
NCI-H460 lung
  GI50: 0.538 µM
  TGI: 2.38 µM
OVCAR-8 ovarian
  GI50: 1 µM
  TGI: 6.55 µM
SF-295 CNS
  GI50: 0.552 µM
  TGI: 1.89 µM
SK-OV-3 ovarian
  GI50: 0.944 µM
  TGI: 2.27 µM
SNB-19 CNS
  GI50: 0.797 µM
  TGI: 7.67 µM
T-47D breast
  GI50: 2.88 µM
  TGI: 13.8 µM

## Nn1c(Cc2ccccc2)n[nH]c1=O
DU-145 prostate
  TGI: > 100 µM
HCT-116 colon
  TGI: > 100 µM
KM12 colon
  TGI: > 100 µM
MALME-3M melanoma
  TGI: > 100 µM
OVCAR-8 ovarian
  TGI: > 100 µM
SF-295 CNS
  TGI: > 100 µM
SK-OV-3 ovarian
  TGI: > 100 µM
SNB-19 CNS
  TGI: > 100 µM
T-47D breast
  TGI: > 100 µM

## CC(NC(C#N)CC12CC3CC(CC(C3)C1)C2)c1ccccc1 (configuration not stated)
DU-145 prostate
  TGI: > 100 µM
HCT-116 colon
  TGI: > 100 µM
MALME-3M melanoma
  TGI: > 100 µM
NCI-H460 lung
  TGI: 67.1 µM
OVCAR-8 ovarian
  TGI: > 100 µM
SF-295 CNS
  TGI: > 100 µM
SK-OV-3 ovarian
  TGI: > 100 µM
SNB-19 CNS
  TGI: > 100 µM
T-47D breast
  TGI: > 100 µM

From PubChem BioAssay (NCI)
